Test results reported in patent US4200575A, “7[(2-Thiazolyl)-2-(oxoimino)acetamido]cephalosporin derivatives” (Takeda Chemical Industries, Ltd., priority 1977, dated 1980).

Key:
Assay in all cases: Minimal inhibitory concentration (M.I.C.), agar dilution method
Conditions in all cases: TSA, inoculum 10^7 /ml
S. marcescens TN 24 = assay type: cell-based, Serratia marcescens
Text: (§1) (a) Determination of minimal inhibitory concentrations (Tables 1 to 8):
(§2) Procedure: agar dilution method

S. marcescens IFO 12648 = assay type: cell-based, Serratia marcescens
Text: as §1, §2

P. morganii IFO 3168 = assay type: cell-based, Proteus morganii
Text: as §1, §2

P. rettgeri GN4733 = assay type: cell-based, Proteus rettgeri
Text: as §1, §2

P. rettgeri TN 338 = assay type: cell-based, Proteus rettgeri
Text: as §1, §2

K. pneumoniae GN 3835 = assay type: cell-based, Klebsiella pneumoniae
Text: as §1, §2

K. pneumoniae DT = assay type: cell-based, Klebsiella pneumoniae
Text: as §1, §2

E. coli 0-111 = assay type: cell-based, Escherichia coli
Text: The minimal inhibitory concentrations (M.I.C.) of some representative cephalosporin derivatives of this invention as produced by the procedures described in those examples and the minimal inhibitory concentrations of cephalothin [sodium 7-(2-thienylacetamido)-3-acetoxymethyl-3-cephem-4-carboxylate], cephaloridine [7-(2-thienylacetamido)-3-(1-pyridyl)methyl-3-cephem-4-carboxylic acid betaine] and cefazolin [sodium 7-(1H-tetrazol-1-yl)acetamido-3-(2-methyl-1,3,4-thiadiazol-5-yl)thiomethyl-3-cephem-4-carboxylate], which are among the clinically established and commercially available cephalosporins (as described, for example, in the New England Journal of Medicine 294, 24, 1976 and Journal of Pharmaceutical Science 64, 1899, 1975), both against various bacteria, as well as the therapeutic effects of some respresentative cephalosporin derivatives of this invention and of cephaloridine in infected mice, are shown in tables.
as §1, §2

C. freundii GN 1706 = assay type: cell-based, Citrobacter freundii
Text: as §1, §2

C. freundii GN 99 = assay type: cell-based, Citrobacter freundii
Text: as §1, §2

E. coli T-7 = assay type: cell-based, Escherichia coli
Text: as §1, §2

E. coli NIHJ JC-2 = assay type: cell-based, Escherichia coli
Text: as §1, §2

E. cloacae TN 1282 = assay type: cell-based, Enterobacter cloacae
Text: as §1, §2

P. mirabilis GN 4359 = assay type: cell-based, Proteus mirabilis
Text: as §1, §2

S. aureus 209P = assay type: cell-based, Staphylococcus aureus
Text: as §1, §2

S. aureus 1840 = assay type: cell-based, Staphylococcus aureus
Text: as §1, §2

P. vulgaris GN 4413 = assay type: cell-based, Proteus vulgaris
Text: as §1, §2

P. vulgaris IFO 3988 = assay type: cell-based, Proteus vulgaris
Text: as §1, §2

CNC(=O)O/N=C(\C(=O)NC1C(=O)N2C(C(=O)O)=C(CSc3nc(CC(=O)O)cs3)CSC12)c1csc(=N)[nH]1 (centres unmarked) [Example IV - 7]
minimal inhibitory concentration (M.I.C.) (S. marcescens TN 24): 6.25
minimal inhibitory concentration (M.I.C.) (S. marcescens IFO 12648): 3.13
minimal inhibitory concentration (M.I.C.) (P. morganii IFO 3168): 0.78
minimal inhibitory concentration (M.I.C.) (P. rettgeri GN4733): 0.39
minimal inhibitory concentration (M.I.C.) (P. rettgeri TN 338): ≤ 0.2
minimal inhibitory concentration (M.I.C.) (K. pneumoniae GN 3835): 0.39
minimal inhibitory concentration (M.I.C.) (K. pneumoniae DT): ≤ 0.2
minimal inhibitory concentration (M.I.C.) (E. coli 0-111): ≤ 0.2
minimal inhibitory concentration (M.I.C.) (C. freundii GN 1706): 3.13
minimal inhibitory concentration (M.I.C.) (C. freundii GN 99): 0.78
minimal inhibitory concentration (M.I.C.) (E. coli T-7): 6.25
minimal inhibitory concentration (M.I.C.) (E. coli NIHJ JC-2): 0.78
minimal inhibitory concentration (M.I.C.) (E. cloacae TN 1282): 12.5
minimal inhibitory concentration (M.I.C.) (P. mirabilis GN 4359): ≤ 0.2
minimal inhibitory concentration (M.I.C.) (S. aureus 209P): 12.5
minimal inhibitory concentration (M.I.C.) (S. aureus 1840): 12.5
minimal inhibitory concentration (M.I.C.) (P. vulgaris GN 4413): 50
minimal inhibitory concentration (M.I.C.) (P. vulgaris IFO 3988): ≤ 0.2

CNC(=O)O/N=C(\C(=O)NC1C(=O)N2C(C(=O)O)=C(C)CSC12)c1csc(=N)[nH]1 (centres unmarked) [Example II - 6]
minimal inhibitory concentration (M.I.C.) (S. marcescens TN 24): 100
minimal inhibitory concentration (M.I.C.) (S. marcescens IFO 12648): 50
minimal inhibitory concentration (M.I.C.) (P. morganii IFO 3168): 12.5
minimal inhibitory concentration (M.I.C.) (P. rettgeri GN4733): 0.2
minimal inhibitory concentration (M.I.C.) (P. rettgeri TN 338): 0.024
minimal inhibitory concentration (M.I.C.) (K. pneumoniae GN 3835): 1.56
minimal inhibitory concentration (M.I.C.) (K. pneumoniae DT): 0.78
minimal inhibitory concentration (M.I.C.) (E. coli 0-111): 0.78
minimal inhibitory concentration (M.I.C.) (C. freundii GN 1706): 12.5
minimal inhibitory concentration (M.I.C.) (C. freundii GN 99): 6.25
minimal inhibitory concentration (M.I.C.) (E. coli T-7): 6.25
minimal inhibitory concentration (M.I.C.) (E. coli NIHJ JC-2): 3.13
minimal inhibitory concentration (M.I.C.) (E. cloacae TN 1282): 50
minimal inhibitory concentration (M.I.C.) (P. mirabilis GN 4359): 0.78
minimal inhibitory concentration (M.I.C.) (S. aureus 209P): 50
minimal inhibitory concentration (M.I.C.) (S. aureus 1840): 50
minimal inhibitory concentration (M.I.C.) (P. vulgaris GN 4413): 12.5
minimal inhibitory concentration (M.I.C.) (P. vulgaris IFO 3988): 1.56

CNC(=O)O/N=C(\C(=O)NC1C(=O)N2C(C(=O)O)=C(CSc3nnnn3CCO)CSC12)c1csc(=N)[nH]1 (centres unmarked) [Example IV - 4]
minimal inhibitory concentration (M.I.C.) (S. marcescens TN 24): 3.13
minimal inhibitory concentration (M.I.C.) (S. marcescens IFO 12648): 3.13
minimal inhibitory concentration (M.I.C.) (P. morganii IFO 3168): ≤ 0.2
minimal inhibitory concentration (M.I.C.) (P. rettgeri GN4733): 0.39
minimal inhibitory concentration (M.I.C.) (P. rettgeri TN 338): ≤ 0.2
minimal inhibitory concentration (M.I.C.) (K. pneumoniae GN 3835): 0.39
minimal inhibitory concentration (M.I.C.) (K. pneumoniae DT): ≤ 0.2
minimal inhibitory concentration (M.I.C.) (E. coli 0-111): ≤ 0.2
minimal inhibitory concentration (M.I.C.) (C. freundii GN 1706): 0.39
minimal inhibitory concentration (M.I.C.) (C. freundii GN 99): ≤ 0.2
minimal inhibitory concentration (M.I.C.) (E. coli T-7): 3.13
minimal inhibitory concentration (M.I.C.) (E. coli NIHJ JC-2): ≤ 0.2
minimal inhibitory concentration (M.I.C.) (E. cloacae TN 1282): 3.13
minimal inhibitory concentration (M.I.C.) (P. mirabilis GN 4359): ≤ 0.2
minimal inhibitory concentration (M.I.C.) (S. aureus 209P): 3.13
minimal inhibitory concentration (M.I.C.) (S. aureus 1840): 3.13
minimal inhibitory concentration (M.I.C.) (P. vulgaris GN 4413): 12.5
minimal inhibitory concentration (M.I.C.) (P. vulgaris IFO 3988): ≤ 0.2

Cc1nnc(SCC2=C(C(=O)[O-])N3C(=O)C(NC(=O)Cn4cnnn4)[C@H]3SC2)s1.[Na+] (some centres unmarked) [Cefazolin, sodium 7-(1H-tetrazol-1-yl)acetamido-3-(2-methyl-1,3,4-thiadiazol-5-yl)thiomethyl-3-cephem-4-carboxylate, reference compound]
minimal inhibitory concentration (M.I.C.) (S. marcescens TN 24): > 100
minimal inhibitory concentration (M.I.C.) (S. marcescens IFO 12648): > 100
minimal inhibitory concentration (M.I.C.) (P. morganii IFO 3168): 100
minimal inhibitory concentration (M.I.C.) (P. rettgeri GN4733): 100
minimal inhibitory concentration (M.I.C.) (P. rettgeri TN 338): ≤ 0.2
minimal inhibitory concentration (M.I.C.) (K. pneumoniae GN 3835): 6.25
minimal inhibitory concentration (M.I.C.) (K. pneumoniae DT): 1.56
minimal inhibitory concentration (M.I.C.) (E. coli 0-111): 1.56
minimal inhibitory concentration (M.I.C.) (C. freundii GN 1706): > 100
minimal inhibitory concentration (M.I.C.) (C. freundii GN 99): 12.5
minimal inhibitory concentration (M.I.C.) (E. coli T-7): 50
minimal inhibitory concentration (M.I.C.) (E. coli NIHJ JC-2): 1.56
minimal inhibitory concentration (M.I.C.) (P. mirabilis GN 4359): 6.25
minimal inhibitory concentration (M.I.C.) (S. aureus 209P): 0.39
minimal inhibitory concentration (M.I.C.) (S. aureus 1840): 1.56
minimal inhibitory concentration (M.I.C.) (P. vulgaris GN 4413): > 100
minimal inhibitory concentration (M.I.C.) (P. vulgaris IFO 3988): 3.13
